Assay results from patent US20210221890A1, “COMBINATION OF BETA-ADRENERGIC RECEPTOR ANTAGONISTS AND CHECK POINT INHIBITORS FOR IMPROVED EFFICACY AGAINST CANCER” (Health Research, Inc., priority 2015, published 2021).

Columns and labels:
[1] = test system: murine pancreatic tumor (Pan02); experiment: Pan02 pancreatic tumor growth in C57BL/6 mice; format: in vivo
Experimental: To obtain the data presented in FIG. 1, a murine pancreatic tumor (Pan02) was engrafted in C57BL/6 mice. When tumors reached an average size of 50-100 mm^3, tumor bearing mice were assigned to one of four experimental groups and treatment was initiated. Groups of mice received: (1) saline (control), (2) anti-PD-1 antibody (BIO X CELL®, 200 μg/dose every 3 days), (3) the β-adrenergic signaling antagonist propranolol (10 mg/kg daily by intraperitoneal injection) or (4) combination therapy. Tumor growth was monitored and graphed as relative tumor volume compared to each tumor's starting volume. […] The data accordingly indicate that the combination therapy can be effective against pancreatic tumors that are resistant to treatment with the checkpoint inhibitor alone.

[2] = test system: 4T1 breast cancer model; experiment: 4T1 breast cancer model tumor growth in BALB/c mice; format: in vivo; conditions: 4T1 in BALB/c mice; propranolol started three days before anti-PD-1

With CC(C)NCC(O)COc1cccc2ccccc12 (stereo not drawn) [propranolol] the “tumor growth (relative tumor volume compared to starting volume)” value ([1]; Pan02 in C57BL/6 mice, anti-PD-1 200 μg/dose every 3 days, propranolol 10 mg/kg daily i.p., Students t-test) was “neither anti-PD-1 nor propranolol alone caused a statistically significant decrease in tumor growth”, the “efficacy of anti-PD-1 checkpoint inhibition” value ([1]; propranolol added to anti-PD-1, Pan02 tumors in C57BL/6 mice, p<0.05) was “significantly improved the efficacy of anti-PD-1 checkpoint inhibition” and the “tumor growth (absolute and relative tumor volume)” value [2] was “neither propranolol nor anti-PD-1 mAb alone has any impact on tumor growth”.
